# In patent US10815275B2, “Antimicrobial peptoids with improved selectivity and use thereof” (priority 2018, dated 2020):
# Read-outs that look alike come from different tables or passages of the source. Non-standard residues stand in square brackets, D forms with d. Residues, ends and D or L forms follow the SMILES beside them. Nspe = C[C@H](NCC(=O)O)c1ccccc1; Nphe = O=C(O)CNCc1ccccc1; Nlys = NCCCCNCC(=O)O
# What was measured:
# [1] = system: red blood cells; experiment: Hemolytic activity on red blood cells; assay type: cell-based, mouse
# Description: In order to identify, through red blood cell hemolytic activity in mice, whether the peptoids synthesized in Preparation Example 1 are cytotoxic, red blood cells isolated from 10 mL of mouse blood were washed three times with phosphate-buffered saline (PBS, mixed solution of 35 mM phosphate buffer/150 mM NaCl, pH 7.4), and then centrifuged at a centrifugal force of 1,000 ×g for 10 minutes. A 10% (v/v) red blood cell solution diluted with PBS was dispensed into a 96-well microtiter plate at 150 μL each, and then a peptide solution was added at 50 μL each. Thereafter, the 96-well microtiter plate was incubated at a temperature of 37° C. for 1 hour.
# The incubated 96-well microtiter plate was centrifuged at a centrifugal force of 1,000×g for 5 minutes. Thereafter, supernatant was taken at 100 μL each and transferred to a new 96-well microtiter plate. Then, absorbance at a wavelength of 540 nm was measured (Table 6).
# In this case, a value obtained in a case of being treated with 0.1% (v/v) Triton X-100 was set as 100% hemolysis, and hemolytic activity (degree of cell destruction) of the peptoids was calculated using the following Equation 1. In the Equation 1, A is absorbance of the peptoid solution at a wavelength of 540 nm, B is absorbance of 0.1% Triton X-100 at a wavelength of 540 nm, and C is absorbance of the PBS solution at a wavelength of 540 nm. In this case, Peptoid NO. […] Degree of cell destruction (% hemolysis)=(A−C)/(B−C)[…] [Equation 1]
# In Table 6, HD10 means a peptoid concentration which causes 10% hemolysis of red blood cells, and HD50 means a peptoid concentration which causes 50% hemolysis of red blood cells. In addition, Hmax is a hemolysis rate (%) at 200 μM which is the highest peptoid concentration used in the experiment.
# Hemolytic activity of Peptoid NOS. 1, 18 to 23, and the peptide Pexiganan was measured in the same manner as in Experimental Example 2.
# [2] = system: B. subtilis; assay type: cell-based; details: 18 h
# Description: (§1) In order to measure antimicrobial activity of the peptoids, Gram-positive B. subtilis or Gram-negative E. coli strain DH5α was treated with Peptoid NOS. 1, 18 to 23, and the peptide Pexiganan, and minimum inhibitory concentrations were measured. Peptoid NOS. 1 and 2, and the peptide Pexiganan are already known antimicrobial peptoids and peptides, and were used for the purpose of making a comparison with novel peptoids in terms of antimicrobial activity.
# (§2) Specifically, B. subtilis or E. coli DHS a was inoculated into LB liquid medium, and cultured at a temperature of 37° C. for 18 hours. Thereafter, the bacteria were diluted with LB medium so that each bacterial number was 2×10^5 colony-forming units (CFU) per 1 mL, and dispensed into 96-well microtiter plates at 100 μL each. The peptoid, which is 2-fold serially diluted using sterile water, was added to each well at 100 μL each. The plates were incubated at a temperature of 37° C. for 18 hours.
# (§3) Thereafter, absorbance was measured at a wavelength of 600 nm using a microplate reader (Bio-Rad). The lowest peptoid concentration that completely suppresses growth of microorganisms was measured by a minimum inhibitory concentration (MIC), and the measurement results are shown in Table 12 below. Each of the minimum inhibitory concentration values was calculated as an average value of numerical values obtained through three independent experiments.
# [3] = in vitro; assay type: cell-based
# Description: In order to determine whether the peptoids were cytotoxic against human cell lines, […] cell line (Korean Cell Line Bank) which is a human lung cell line was cultured in a DMEM (Dulbecco's modified Eagle's medium) culture solution containing 10% (v/v) fetal bovine serum (FBS) at 5% CO2 and a temperature of 37° C. 100 μL of DMEM medium was dispensed into each well of a 96-well microtiter plate so that the number of cells was 1.3×10^4, and then incubated overnight at a temperature of 37° C. in a 5% CO2 incubator. In this case, a DMEM medium was used as a negative control. Thereafter, the peptoid which is 2-fold serially diluted using sterile water was added to each well, and then incubated for 24 hours.
# After incubation, 20 μL of an MTS solution [3-(4,5-dimethylthiazol-2-yl)-5-(3-carboxymethoxyphenyl)-2-(4-sulfophenyl)-2H-tetrazolium, inner salt; MTS] was added thereto and incubated at a temperature of 37° C. for 4 hours. Thereafter, % survival was calculated by measuring absorbance at a wavelength of 490 nm using an ELISA reader. The % survival was calculated as a percentage obtained by dividing the absorbance value for a well-treated with the peptoid by the absorbance value for a well containing control cells which had not been treated with the peptoid.
# [4] = system: E. coli strain DH5α; experiment: Antimicrobial activity of peptoids with altered cationic residues, MIC; assay type: cell-based; details: LB medium, 18 h
# Description: as §1, §2, §3
# [5] = system: E. coli strain ATCC25922; assay type: cell-based; details: for MBC E. coli: ATCC25922; for MIC E. coli: ATCC25922, 18 h
# Description: (§4) In order to measure antimicrobial activity of the peptoids, Gram-positive S. aureus strain KCTC1621, or Gram-negative E. coli strain ATCC25922 was treated with the peptoids prepared in Preparation Example 1, and minimum inhibitory concentrations were measured. Peptoid NOS. 1 and 2 are already known peptoids and were used for the purpose of making a comparison with novel peptoids in terms of antimicrobial activity.
# (§5) Specifically, S. aureus strain KCTC1621 or E. coli strain ATCC25922 was inoculated into Mueller Hinton Broth (MHB2) liquid medium on which cations were adjusted, cultured at a temperature of 37° C. for 18 hours, and then subcultured for 4 hours. Thereafter, the strains were diluted with MHB2 liquid medium containing 0.2% bovine serum albumin and 0.01% acetic acid so that each bacterial number was 2×10^5 colony-forming units (CFU) per 1 mL, and dispensed into 96-well microtiter plates at 100 μL each. A peptoid stock which is 40-fold more concentrated than a concentration to be tested was added to each well at 2.5 μL or lower so that the peptoid stock was 2-fold serially diluted using sterile water. Thereafter, the plates were incubated at a temperature of 37° C. for 18 hours.
# (§6) Thereafter, absorbance was measured at a wavelength of 600 nm using a microplate reader (Bio-Rad). The lowest peptoid concentration that completely suppresses growth of microorganisms was measured by a minimum inhibitory concentration (MIC) and a minimum bactericidal concentration (MBC), and the measurement results are shown in Table 5 below. Each of the MIC values was calculated as an average value of numerical values obtained through three independent experiments.
# [6] = system: S. aureus strain KCTC1621; assay type: cell-based; details: for MBC S. aureus: KCTC1621; for MIC S. aureus: KCTC1621, 18 h
# Description: as §4, §5, §6
# [7] = system: P. aeruginosa (PA01); experiment: MIC in multidrug-resistant bacteria panel, modified microdilution; assay type: cell-based; details: overnight, 37° C.
# Description: (§7) Minimum inhibitory concentrations of the prepared peptoids for multidrug-resistant bacteria were measured using a modified microdilution method in Difco Mueller Hinton medium, and tests were done on a panel of bacterial pathogens which have resistance and tolerance against common antibiotics.
# (§8) Briefly, a peptoid concentrate, which is 10-fold more concentrated than a final concentration, was serially diluted with a medium containing 0.2% bovine serum albumin and 0.01% acetic acid. 10 μL of the 10-fold concentrated peptoid concentrate and 90 μL of Muller Hinton medium were added to each well of a 96-well polypropylene microtitre plate. Bacteria were added to the plate so that a final concentration thereof was 2×10^5 CFU/mL, and then incubated overnight at a temperature of 37° C. The minimum inhibitory concentration was defined as a concentration at which no bacterial growth is observed.
# [8] = system: S. epidermidis (ET-024 MRSA); experiment: as above; assay type: cell-based; details: overnight, 37° C.
# Description: as §7, §8
# [9] = system: E. coli; experiment: Selectivity analysis, HD10 divided by MIC for E. coli; details: HD10 of Table 6 divided by MIC for E. coli ATCC25922
# Description: In order to identify changes in selectivity depending on alteration of degree of folding in helical structure of peptoids, selectivity of each peptoid was calculated using the resultant values measured in the Experimental Examples 1 and 2. The selectivity was obtained by dividing the HD10 value by the minimum inhibitory concentration for E. coli (Table 8).
# [10] = system: E. coli (63103 ESBL); experiment: MIC in multidrug-resistant bacteria panel, modified microdilution; assay type: cell-based; details: overnight, 37° C.
# Description: as §7, §8
# [11] = system: S. aureus (ATCC25923); experiment: as above; assay type: cell-based; details: overnight, 37° C.
# Description: as §7, §8
Structure (SMILES),HD10 [1],MIC B. subtilis [2],"CC50 at 24 h ([3]; concentration indicating 50% survival, 24 h, MTS, read-out: LC50)",MIC E. coli [4],CC50 at 24 h ([3]; human),HD50 [1],MBC E. coli [5],MIC E. coli [5],MBC S. aureus [6],MIC S. aureus [6],minimum inhibitory concentration P. aeruginosa (PA01) [7],minimum inhibitory concentration S. epidermidis (ET-024 MRSA) [8],Selectivity [HD10/MIC (E. coli)] [9],minimum inhibitory concentration E. coli (63103 ESBL) [10],minimum inhibitory concentration S. aureus (ATCC25923) [11]
C[C@@H](c1ccccc1)N(CC(=O)N(CCCCN)CC(=O)N(CC(=O)N(CC(=O)N(CCCCN)CC(=O)N(CC(=O)N(CC(=O)N(CCCCN)CC(=O)N(CC(=O)N(CC(=O)N(CCCCN)CC(N)=O)[C@@H](C)c1ccccc1)[C@@H](C)c1ccccc1)[C@@H](C)c1ccccc1)[C@@H](C)c1ccccc1)[C@@H](C)c1ccccc1)[C@@H](C)c1ccccc1)C(=O)CN(C(=O)CNCCCCN)[C@@H](C)c1ccccc1 [compound 22] (H-[Nlys][Nspe][Nspe][Nlys][Nspe][Nspe][Nlys][Nspe][Nspe][Nlys][Nspe][Nspe][Nlys]-NH2),19.5,0.4 µM,10 µM,–,–,–,–,–,–,–,–,–,–,–,–
C[C@@H](c1ccccc1)N(CC(=O)N(CCCCN)CC(=O)N(CC(=O)N(CC(=O)N(CCCCN)CC(=O)N(CC(=O)N(CC(=O)N(CCCCN)CC(N)=O)[C@@H](C)c1ccccc1)[C@@H](C)c1ccccc1)[C@@H](C)c1ccccc1)[C@@H](C)c1ccccc1)C(=O)CN(C(=O)CNCCCCN)[C@@H](C)c1ccccc1 [compound 23] (H-[Nlys][Nspe][Nspe][Nlys][Nspe][Nspe][Nlys][Nspe][Nspe][Nlys]-NH2),–,0.8 µM,–,1.6 µM,80.5 µM,–,–,–,–,–,–,–,–,–,–
C[C@@H](c1ccc(F)cc1)N(CC(N)=O)C(=O)CN(C(=O)CN(CCCCN)C(=O)CN(C(=O)CN(C(=O)CN(CCCCN)C(=O)CN(C(=O)CN(C(=O)CN(CCCCN)C(=O)CN(C(=O)CN(C(=O)CNCCCCN)[C@@H](C)c1ccc(F)cc1)[C@@H](C)c1ccc(F)cc1)[C@@H](C)c1ccc(F)cc1)[C@@H](C)c1ccc(F)cc1)[C@@H](C)c1ccc(F)cc1)[C@@H](C)c1ccc(F)cc1)[C@@H](C)c1ccc(F)cc1 [compound 21],<6.25/<6.25,0.4 µM,–,–,9.5 µM,<6.25/<6.25,–,–,–,–,–,–,–,–,–
C[C@@H](c1ccccc1)N(CC(=O)N(CCCCN)CC(=O)N(CC(=O)N(CC(=O)N(CCCCN)CC(=O)N(CC(=O)N(CC(=O)N(CCCCN)CC(=O)N(CC(=O)N(CC(N)=O)Cc1ccccc1)Cc1ccccc1)Cc1ccccc1)Cc1ccccc1)Cc1ccccc1)Cc1ccccc1)C(=O)CN(C(=O)CNCCCCN)[C@@H](C)c1ccccc1 [compound 17] (H-[Nlys][Nspe][Nspe][Nlys][Nphe][Nphe][Nlys][Nphe][Nphe][Nlys][Nphe][Nphe]-NH2),–,–,–,–,–,> 200,25 µM,25 µM,3.1 µM,3.1 µM,6.3,<0.8 to 0.8,4.8,–,–
NCCCCNCC(=O)N(CC(=O)N(CC(=O)N(CCCCN)CC(=O)N(CC(=O)N(CC(=O)N(CCCCN)CC(=O)N(CC(=O)N(CC(=O)N(CCCCN)CC(=O)N(CC(=O)N(CC(N)=O)Cc1ccccc1)Cc1ccccc1)Cc1ccccc1)Cc1ccccc1)Cc1ccccc1)Cc1ccccc1)Cc1ccccc1)Cc1ccccc1 [compound 2] (H-[Nlys][Nphe][Nphe][Nlys][Nphe][Nphe][Nlys][Nphe][Nphe][Nlys][Nphe][Nphe]-NH2),–,–,–,–,–,>200/>200,>25 µM,25 µM,6.3 µM,3.1 µM,6.3,<0.8 to 0.8,>8.0,12.5,–
C[C@@H](c1ccccc1)N(CC(N)=O)C(=O)CN(C(=O)CN(CCCCN)C(=O)CN(Cc1ccccc1)C(=O)CN(Cc1ccccc1)C(=O)CN(CCCCN)C(=O)CN(Cc1ccccc1)C(=O)CN(Cc1ccccc1)C(=O)CN(CCCCN)C(=O)CN(C(=O)CN(C(=O)CNCCCCN)[C@@H](C)c1ccccc1)[C@@H](C)c1ccccc1)[C@@H](C)c1ccccc1 [compound 11],61.6,–,–,–,–,> 200,25 µM,12.5 µM,6.3 µM,3.1 µM,6.3,<0.8 to 0.8,4.9,6.3,3.1
